Entries after “also recorded” stand apart in the source; their conditions may differ. Where a SMILES comes first, the peptide text is derived from it. Bridges are numbered along the chain shown (N, C = ends). [ ]: non-standard residue; d: D form. AEEA = NCCOCCOCC(=O)O
Columns and labels:
fibrin clot = target: T1, fibrin clot (Homo sapiens, UniProt P02671+P02675+P02679); assay: Plasma matrix interference on probe binding to fibrin clots; details: 20 µCi probe, 0.1 M PBS diluted 50% with fresh frozen human plasma, 0.5 mL, 37 °C, 30 min, triplicate
T1 sequence (P02671 20-644 isoform P02671-2 limits assumed): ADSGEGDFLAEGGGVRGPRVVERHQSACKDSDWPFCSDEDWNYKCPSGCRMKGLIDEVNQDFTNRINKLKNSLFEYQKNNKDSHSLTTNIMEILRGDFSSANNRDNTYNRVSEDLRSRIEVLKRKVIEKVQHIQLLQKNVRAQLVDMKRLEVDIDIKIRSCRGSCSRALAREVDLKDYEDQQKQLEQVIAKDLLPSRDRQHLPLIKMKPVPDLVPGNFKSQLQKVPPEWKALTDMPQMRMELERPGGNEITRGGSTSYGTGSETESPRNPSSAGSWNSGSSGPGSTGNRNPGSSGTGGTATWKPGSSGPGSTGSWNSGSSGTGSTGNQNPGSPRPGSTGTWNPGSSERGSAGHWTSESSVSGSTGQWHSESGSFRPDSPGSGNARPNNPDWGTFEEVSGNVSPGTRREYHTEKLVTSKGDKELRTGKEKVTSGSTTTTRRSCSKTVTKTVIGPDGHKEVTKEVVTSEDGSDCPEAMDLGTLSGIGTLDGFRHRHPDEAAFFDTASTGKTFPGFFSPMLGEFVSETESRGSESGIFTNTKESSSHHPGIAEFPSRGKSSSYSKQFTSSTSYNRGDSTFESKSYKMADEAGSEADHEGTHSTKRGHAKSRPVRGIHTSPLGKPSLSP
T1 sequence (P02675 45-491 limits assumed): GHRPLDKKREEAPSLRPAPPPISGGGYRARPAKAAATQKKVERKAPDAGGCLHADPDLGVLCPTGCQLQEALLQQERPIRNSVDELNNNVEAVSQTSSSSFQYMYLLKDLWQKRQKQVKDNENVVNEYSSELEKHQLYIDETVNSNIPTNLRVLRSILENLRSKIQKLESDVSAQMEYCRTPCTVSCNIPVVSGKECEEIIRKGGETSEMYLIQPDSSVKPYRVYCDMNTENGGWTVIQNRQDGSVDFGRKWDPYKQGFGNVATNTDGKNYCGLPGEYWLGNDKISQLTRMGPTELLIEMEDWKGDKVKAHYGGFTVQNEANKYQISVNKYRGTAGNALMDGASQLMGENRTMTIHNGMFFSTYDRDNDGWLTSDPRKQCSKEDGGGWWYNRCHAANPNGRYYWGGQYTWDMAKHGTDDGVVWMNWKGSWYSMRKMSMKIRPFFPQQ
T1 sequence (P02679 27-437 isoform P02679-2 limits assumed): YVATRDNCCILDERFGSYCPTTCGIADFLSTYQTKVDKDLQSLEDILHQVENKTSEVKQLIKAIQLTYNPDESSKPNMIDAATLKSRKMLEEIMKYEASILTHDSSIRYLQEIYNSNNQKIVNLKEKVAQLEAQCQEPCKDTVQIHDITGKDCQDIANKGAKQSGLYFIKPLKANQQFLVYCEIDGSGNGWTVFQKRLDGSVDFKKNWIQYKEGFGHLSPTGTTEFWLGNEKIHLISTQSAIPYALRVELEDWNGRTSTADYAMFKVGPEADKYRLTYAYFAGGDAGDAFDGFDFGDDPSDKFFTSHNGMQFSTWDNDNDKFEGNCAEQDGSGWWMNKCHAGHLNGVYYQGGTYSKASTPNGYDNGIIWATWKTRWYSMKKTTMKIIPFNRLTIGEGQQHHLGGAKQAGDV

[1] = Organ biodistribution in mice at 180 min; assay type: in vivo; details: 180 min after tail vein injection, n=3/treatment

For `CC[C@H](C)[C@H](NC(=O)[C@H](Cc1c[nH]c2ccccc12)NC(=O)[C@@H]1CSSC[C@H](NC(=O)[C@H](CCC(=O)O)NC(=O)[C@H](Cc2c[nH]c3ccccc23)NC(=O)[C@H](CCC(N)=O)NC(=O)COCCOCCNC(=O)[C@H](CCC(=O)O)NC(=O)[C@H](Cc2c[nH]cn2)NC(=O)[C@@H](N)Cc2c[nH]cn2)C(=O)N2CCC[C@H]2C(=O)N[C@@H](Cc2ccc(O)cc2)C(=O)NCC(=O)N[C@@H](CC(C)C)C(=O)N1)C(=O)N[C@@H](CCC(N)=O)C(=O)O` [^99mTc-F1A, metal not drawn] (H-HHE[AEEA]QWECPYGLCWIQ-OH; disulfide 8-13), the “binding to fibrin clots in the presence of human plasma compared with PBS alone” value (fibrin clot) was “interfered; also recorded: dramatically reduced; also recorded: severely compromised” and the “organ accumulation (lung, liver, spleen)” value [1] was “negligible liver or spleen biodistribution; also recorded: neither probe accumulating substantially in the lung, liver or spleen”.
